# Results published in ChEMBL document CHEMBL3046784, “Exploring QSAR of antiamoebic agents of isolated natural products by MLR, ANN, and RTO” (Med Chem Res, 2012).
# System: Entamoeba histolytica
# Assay: Antiamoebic activity against Entamoeba histolytica
# Type: functional, organism-based
# Details: not given
row,SMILES,IC50 [µg/mL]
1,COc1cc2c3cc1Oc1c(OC)c(OC)cc4c1[C@H](Cc1ccc(cc1)Oc1cc(ccc1O)C[C@H]3N(C)CC2)N(C)CC4 (stereo in doubt; 13) [AROMOLINE],2.99
2,COc1ccc2cc1Oc1ccc(cc1)C[C@H]1c3cc(c(OC)cc3CCN1C)Oc1c(OC)c(OC)cc3c1[C@H](C2)N(C)CC3 (stereo in doubt; 145) [FANCHININ],25.16

# Same assay, conditions: Entamoeba histolytica; read-out: IC50
row,SMILES,IC50 [µg/mL]
1,C[C@H]1O[C@H](Oc2c(-c3ccc(O)c(O)c3)oc3cc(O)cc(O)c3c2=O)[C@@H](O)[C@@H](O)[C@@H]1O [QUERCETIN-3-O-RHAMNOSIDE],84.7
2,C/C=C1/CN2CC[C@]34c5ccccc5N(C(C)=O)[C@H]3[C@H](C=O)[C@H]1C[C@H]24 [ISORETULINAL],24.1
3,C[C@H]1O[C@H](OC[C@H]2O[C@@H](Oc3c(-c4ccc(O)cc4)oc4cc(O)cc(O)c4c3=O)[C@H](O)[C@@H](O)[C@@H]2O)[C@@H](O)[C@@H](O)[C@@H]1O [KAEMPFEROL-3-O-RUTINOSIDE],72.5
4,O=c1c(O)c(-c2cc(O)c(O)c(O)c2)oc2cc(O)cc(O)c12 [MYRICETIN],115
5,C=C[C@H]1CN2CCc3c([nH]c4c([C@H]5CCCN5C)c(O)ccc34)[C@@H]2C[C@@H]1C[C@H]1c2[nH]c3ccccc3c2CCN1C [STRYCHNOPENTAMINE],7.7
6,CC[C@H]1CN2CCc3cc(OC)c(OC)cc3[C@@H]2C[C@@H]1CC1=NCCc2cc(O)c(OC)cc21 [PSYCHOTRINE],8.19
7,CC1=CC(=O)[C@@H](O)[C@]2(C)[C@H]3[C@]4(O)OC[C@]35[C@H]([C@@H](C)[C@H]4O)[C@@H](O)C(=O)O[C@@H]5C[C@@H]12 [GLAUCARUBOLONE],0.12
8,CC[C@H](CC[C@@H](C)[C@H]1CC[C@H]2[C@@H]3CC=C4C[C@@H](O)CC[C@]4(C)[C@H]3CC[C@]12C)C(C)C [BETA-SITOSTEROL],52.3
9,CI.COc1cc2c3c4c1Oc1cc5c(cc1O4)[C@H](Cc1ccc(O)c(c1)Oc1ccc(cc1)C[C@@H]3N(C)CC2)N(C)CC5 [COCSULINE METHIODIDE],28.9
10,O=c1cc(-c2ccc(O)c(O)c2)oc2cc(O[C@@H]3O[C@H](CO)[C@@H](O)[C@H](O)[C@H]3O)cc(O)c12 [GALUTEOLIN],44.7
11,COC(=O)C1=CO[C@H](O[C@@H]2O[C@H](COC(C)=O)[C@@H](O)[C@H](O)[C@H]2O)[C@H]2[C@@H]1C=C[C@@]21C=C(C(O)c2ccc(O)cc2)C(=O)O1 (some centres undefined) [ACETYLGAERTNEROSIDE],5.4
12,O=c1c(O[C@@H]2O[C@H](CO)[C@H](O)[C@H](O)[C@H]2O)c(-c2ccc(O)c(O)c2)oc2cc(O)cc(O)c12 [HYPEROSIDE],144
13,COc1cc2c3cc1Oc1c(O)c(OC)cc4c1[C@H](Cc1ccc(cc1)Oc1cc(ccc1O)C[C@H]3NCC2)N(C)CC4 [DAPHNOLINE],> 50
14,O=C(/C=C/c1ccc(O)cc1)OC[C@H]1O[C@@H](Oc2c(-c3ccc(O)cc3)oc3cc(O)cc(O)c3c2=O)[C@H](O)[C@@H](O)[C@@H]1O [TILIROSIDE],17.4
15,O=c1ccc2nccc3c4ccccc4n1c23 [CANTHIN-6-ONE],23
16,COC1=C[C@@H](C)[C@@H]2C[C@H]3OC(=O)C[C@H]4C(C)=C(OC)C(=O)[C@H]([C@@]2(C)C1=O)[C@@]34C [QUASSIN],0.5
17,COC(=O)[C@@]12OC[C@]34[C@H]([C@@H](O)[C@@H]1O)[C@@]1(C)CC(=O)C(O)=C(C)[C@@H]1C[C@H]3OC(=O)[C@H](OC(=O)CC(C)C)[C@@H]24 [BRUCEINE A],0.097
18,Oc1cc(O)c2c(c1)O[C@H](c1cc(O)c(O)c(O)c1)[C@H](O)C2 [EPIGALLOCATECHIN],6.89
19,O=C(O)C1=CO[C@H](O[C@@H]2O[C@H](CO)[C@@H](O)[C@H](O)[C@H]2O)[C@H]2[C@@H]1C=C[C@@]21C=C(C(O)c2ccc(O)cc2)C(=O)O1 (some centres undefined) [GAERTNERIC ACID],7.1
20,CC1=C[C@H](O)[C@@H](O)[C@]2(C)[C@H]3[C@@]4(O)OC[C@]35[C@H]([C@@H](C)[C@H]4O)[C@@H](O)C(=O)O[C@@H]5C[C@@H]12 [GLAUCARUBOL],2
21,CCC(C)C(=O)O[C@H]1C(=O)O[C@@H]2C[C@H]3C(C)=CC(=O)[C@@H](O)[C@]3(C)[C@H]3[C@]4(O)OC[C@]32[C@@H]1[C@@H](C)[C@H]4O (some centres undefined) [AILANTHINONE],0.063
22,C=C[C@H]1CN2CCc3c([nH]c4ccccc34)[C@@H]2C[C@@H]1C[C@@H]1NCCc2c1[nH]c1cccc(OC)c21 [3ALPHA-17BETA-CINCHOPHYLLINE],0.96
23,CC(=O)CCCCCCCCCC[C@H]1CC[C@@H](O)[C@@H](C)N1 [CASSINE],12
24,C=C[C@H]1CN2CC[C@H]1C[C@@H]2[C@@]12Nc3ccccc3[C@]1(O)CCO2 [3-EPIQUINAMINE],12.9
25,C/C=C1/CN2CC[C@]34c5ccccc5N(C(C)=O)[C@H]3[C@@H](C=O)[C@@H]1C[C@H]24 [RETULINAL],25.2
26,CO[C@H]1[C@H](O)[C@@H](O)[C@@H](O)[C@H](O)[C@@H]1O [METHYLINOSITOL],16.6

row,SMILES,IC50 [µg/mL]
1,COc1cc(O)c2c(c1)C(=O)c1cc(C)cc(O)c1C2=O [PHYSCION],12.7
2,CN1[C@@H]2CC[C@H]1C[C@@H](OC(=O)C(CO)c1ccccc1)C2 (some centres undefined) [ATROPINE],> 100
3,C[C@@H]1N=C[C@]23C[C@@H](O)[C@H]4[C@@H](CCC5=CC(=O)C=C[C@@]54C)[C@@H]2CC[C@H]13 [HOLANAMINE],3.96
4,"CCc1ccc2[n+](c1)CCc1c-2[nH]c2ccccc12 [5,6-DIHYDROFLAVOPEREIRINE]",6.02
5,COC(=O)[C@]12OC[C@]34[C@H]([C@@H](O)[C@@H]1O)[C@@]1(C)CC(=O)C(O)=C(C)[C@@H]1C[C@H]3OC(=O)[C@H](OC(=O)/C=C(\C)C(C)(C)O)[C@@H]24 [BRUCEINE C],0.279
6,C=C[C@H]1CN2CC[C@H]1C[C@@H]2C(=O)c1ccnc2ccc(OC)cc12 [QUINIDINONE],7.4
7,COc1cc2c3c(c1O)Oc1ccc(cc1)C[C@@H]1c4c(cc(OC)c(O)c4Oc4ccc(cc4)C[C@H]3N(C)CC2)CCN1C [ISOCHONDODENDRINE],10.5
8,C/C=C1/CN2CC[C@]34c5ccccc5N(C(C)=O)[C@H]3[C@H](COC(C)=O)[C@H]1C[C@H]24 [O-ACETYLISORETULINE],23.2
9,CC[C@@H]1CN2CC[C@@]34c5ccccc5N5[C@@H]([C@@H]6[C@H]7C[C@@H]8N(CC[C@@]89c8ccccc8N(C(C)=O)[C@@H]69)C[C@H]7CC)OC[C@H]([C@H]1C[C@H]23)[C@H]54 [DIDEHYDRO ISOSTRYCHNOBILINE],21.4
10,C=C[C@H]1CN2CC[C@H]1C[C@H]2c1[nH]c2ccccc2c1CCOC [10-METHOXY CINCHONAMINE],4.5
11,O=C1C[C@@H](c2ccc(O)cc2)Oc2cc(O)cc(O)c21 [NARINGENIN],92.2
12,C/C=C1\CN(C)CC[C@]23C(=O)C[C@@H]1[C@H]1CO[C@H](OC)C(=O)N(c4ccccc42)[C@@H]13 [HOLSTILINE],24.9
13,COc1cc2c3c4c1Oc1cc5c(cc1O4)[C@H](Cc1ccc(O)c(c1)Oc1ccc(cc1)C[C@@H]3N(C)CC2)N(C)CC5 [COCSULINE],13.2
14,CC[C@H]1CN2CCc3cc(OC)c(OC)cc3[C@@H]2C[C@@H]1C[C@H]1NCCc2cc(O)c(OC)cc21 [CEPHAELINE],3.26
15,C/C=C(/C=O)[C@@H]1C[C@H]2c3c(c4ccccc4n3[C@@H](O)C1)CCN2C [AKAGERINE],17.1
16,C/C=C(/C)C(=O)O[C@H]1[C@@H]2[C@H](C)C(=O)O[C@@H]2C[C@@H](C)[C@@H]2C=CC(=O)[C@]21C [BREVILIN A],3.11
17,COC(=O)[C@@]12OC[C@]34[C@H]([C@@H](O)[C@@H]1O)[C@@]1(C)CC(=O)C(O)=C(C)[C@@H]1C[C@H]3OC(=O)[C@H](OC(C)=O)[C@@H]24 [BRUCEINE B],0.306
18,COc1cc(-c2cc(=O)c3c(O)cc(O[C@@H]4O[C@H](CO)[C@@H](O)[C@H](O)[C@H]4O[C@@H]4O[C@@H](C)[C@H](O)[C@@H](O)[C@H]4O)cc3o2)ccc1O [CHRYSOERIOL-7-O-NEOHESPERIDOSIDE],> 125
19,COC(=O)C1=CO[C@@H](O[C@@H]2O[C@H](CO)[C@@H](O)[C@H](O)[C@H]2O)[C@H]2[C@@H]1C=C[C@@]21C=C(C(O)c2ccc(O)c(OC)c2)C(=O)O1 (some centres undefined) [METHOXY-GAERTNEROSIDE],2.3
20,O=C(O)/C=C/c1ccccc1O[C@@H]1O[C@H](CO)[C@@H](O)[C@H](O)[C@H]1O [MELILOTOSIDE],12.5
21,C[C@H]1O[C@H](Oc2c(-c3ccc(O)cc3)oc3cc(O)cc(O)c3c2=O)[C@@H](O)[C@@H](O)[C@@H]1O [KAEMPFEROL-3-O-RHAMNOSIDE],64.7
22,CC[C@](C)(O)C(=O)O[C@H]1C(=O)O[C@@H]2C[C@H]3C(C)=C[C@H](O)[C@@H](O)[C@]3(C)[C@H]3[C@]4(O)OC[C@]32[C@@H]1[C@@H](C)[C@H]4O [GLAUCARUBIN],1.57
23,Oc1cc(O)c2c(c1)O[C@H](c1ccc(O)c(O)c1)[C@H](O)C2 [(-)-EPICATECHIN],1.92
24,COc1ccc2cc1Oc1ccc(cc1)C[C@@H]1c3cc(c(OC)cc3CCN1C)Oc1c(OC)c(OC)cc3c1[C@H](C2)N(C)CC3 [ISOTETRANDRINE],13.8
25,O=C1C[C@@H](c2ccccc2)Oc2cc(O)cc(O)c21 [PINOCEMBRIN],80.8
26,O=C(/C=C/c1ccc(O)c(O)c1)O[C@@H]1C2C=CO[C@H](O[C@@H]3O[C@H](CO)[C@@H](O)[C@H](O)[C@H]3O)C2[C@]2(CO)O[C@H]12 (some centres undefined) [VERMINOSIDE],0.0995
